PMC4303209, “A novel phosphatidylinositol 3-kinase (PI3K) inhibitor directs a potent FOXO-dependent, p53-independent cell cycle arrest phenotype characterized by the differential induction of a subset of FOXO-regulated genes” (Breast Cancer Research : BCR, 2014)

System: MCF-7 breast cancer cells
Assay: Microarray gene expression analysis (Agilent whole human genome 4 x 44K; compound vs DMSO, LIMMA log2 fold change)
Assay type: cell-based
Details: cell cycle genes

Oc1cccc(-c2nc(N3CCOCC3)c3oc4ncccc4c3n2)c1 [PI-103]
TUBB3 log2FC (Gene 10381): -0.59 | ANAPC10 log2FC (Gene 10393): 0.20 | NDRG1 log2FC (Gene 10397): 1.49 | GNB2L1 log2FC (Gene 10399): -0.0332 | PRMT5 log2FC (Gene 10419): -0.13 | MAD2L2 log2FC (Gene 10459): 0.16 | TACC3 log2FC (Gene 10460): -0.29 | CREB3 log2FC (Gene 10488): -0.0661 | MYBBP1A log2FC (Gene 10514): -0.30 | CIB1 log2FC (Gene 10519): -0.08 | SSSCA1 log2FC (Gene 10534): -0.27 | DCTN2 log2FC (Gene 10540): 0.11 | SMC2 log2FC (Gene 10592): 0.63 | ERN2 log2FC (Gene 10595): -0.68 | USP16 log2FC (Gene 10600): 0.68 | HEXIM1 log2FC (Gene 10614): -0.43 | SPAG5 log2FC (Gene 10615): 0.36 | STAMBP log2FC (Gene 10617): 0.27 | TXNIP log2FC (Gene 10628): 2.21 | PDPN log2FC (Gene 10630): -0.0347 | RGS14 log2FC (Gene 10636): 0.71 | CTCF log2FC (Gene 10664): -0.22 | CGRRF1 log2FC (Gene 10668): 0.54 | CGREF1 log2FC (Gene 10669): 0.00665 | USP39 log2FC (Gene 10713): -0.0422 | NUDC log2FC (Gene 10726): -0.38 | PLK4 log2FC (Gene 10733): 0.52 | STAG3 log2FC (Gene 10734): 0.43 | STAG2 log2FC (Gene 10735): 1.19 | NES log2FC (Gene 10763): -0.28 | PLK2 log2FC (Gene 10769): -0.93 | NEK6 log2FC (Gene 10783): -0.68 | SDCCAG8 log2FC (Gene 10806): 0.62 | TUBGCP2 log2FC (Gene 10844): 0.037 | LILRB1 log2FC (Gene 10859): -0.21 | USP19 log2FC (Gene 10869): 0.38 | BLCAP log2FC (Gene 10904): -0.47 | TXNL4A log2FC (Gene 10907): -0.46 | SUGT1 log2FC (Gene 10910): 0.24 | GADD45G log2FC (Gene 10912): -0.19 | EHMT2 log2FC (Gene 10919): 0.25 | BTG3 log2FC (Gene 10950): 0.00788 | MAPRE2 log2FC (Gene 10982): -0.34 | KIF2C log2FC (Gene 11004): 0.44 | TLK2 log2FC (Gene 11011): 0.62 | RAB35 log2FC (Gene 11021): -0.44 | TDRKH log2FC (Gene 11022): 0.0086 | PIM2 log2FC (Gene 11040): -0.54 | UBE2C log2FC (Gene 11065): -0.18 | TRIOBP log2FC (Gene 11078): 0.53 | NUPL2 log2FC (Gene 11097): -0.024 | KATNA1 log2FC (Gene 11104): 0.67 | PRDM4 log2FC (Gene 11108): 0.26 | CIT log2FC (Gene 11113): 0.53 | ZWINT log2FC (Gene 11130): -0.23 | CDC37 log2FC (Gene 11140): -0.17 | LZTS1 log2FC (Gene 11178): -0.98 | WDR6 log2FC (Gene 11180): -0.36 | RASSF1 log2FC (Gene 11186): 0.72 | CEP250 log2FC (Gene 11190): -0.14 | PMF1 log2FC (Gene 11243): -0.18 | DCTN3 log2FC (Gene 11258): 0.31 | TUSC2 log2FC (Gene 11334): -0.50 | OIP5 log2FC (Gene 11339): 0.0365 | MAPRE1 log2FC (Gene 22919): -0.57 | MAPRE3 log2FC (Gene 22924): 0.0211 | TRIM32 log2FC (Gene 22954): -0.32 | TPX2 log2FC (Gene 22974): -0.00173 | AZI1 log2FC (Gene 22994): 0.93 | CEP152 log2FC (Gene 22995): 0.55 | USP33 log2FC (Gene 23032): 0.88 | WAPAL log2FC (Gene 23063): 0.61 | TRIM35 log2FC (Gene 23087): 0.20 | CLASP2 log2FC (Gene 23122): 0.55 | POGZ log2FC (Gene 23126): 0.58 | PHF8 log2FC (Gene 23133): -0.18 | SMC5 log2FC (Gene 23137): -0.36 | FBXL7 log2FC (Gene 23194): 0.0429 | PSME4 log2FC (Gene 23198): -0.07 | RRS1 log2FC (Gene 23212): -0.91 | NUP210 log2FC (Gene 23225): -0.44 | PLCB1 log2FC (Gene 23236): 1.31 | BOP1 log2FC (Gene 23246): -0.18 | NUP160 log2FC (Gene 23279): -0.78 | FBXW11 log2FC (Gene 23291): -0.28 | UBR2 log2FC (Gene 23304): 0.76 | USP22 log2FC (Gene 23326): 0.07 | CLASP1 log2FC (Gene 23332): -0.36 | PPP1R13B log2FC (Gene 23368): 0.0642 | DICER1 log2FC (Gene 23405): -0.87 | SIRT1 log2FC (Gene 23411): 1.17 | ITGB3BP log2FC (Gene 23421): 0.69 | PES1 log2FC (Gene 23481): -0.38 | ZFYVE26 log2FC (Gene 23503): 0.40 | SCRIB log2FC (Gene 23513): 0.03 | CCNDBP1 log2FC (Gene 23582): 0.71 | CD2AP log2FC (Gene 23607): 0.81 | NUP62 log2FC (Gene 23636): -0.63 | RABGAP1 log2FC (Gene 23637): 0.55 | PPP1R15A log2FC (Gene 23645): 0.51 | POLA2 log2FC (Gene 23649): -0.87 | ZNF318 log2FC (Gene 24149): 0.53 | RAD54B log2FC (Gene 25788): 0.42 | NIPBL log2FC (Gene 25836): 0.88 | INTS7 log2FC (Gene 25896): -0.23 | AHCTF1 log2FC (Gene 25909): 0.40 | SIN3A log2FC (Gene 25942): 0.89 | SH2B1 log2FC (Gene 25970): -0.49 | EGFL6 log2FC (Gene 25975): 0.03 | SENP6 log2FC (Gene 26054): 0.54 | FBXO6 log2FC (Gene 26270): 0.37 | FBXO5 log2FC (Gene 26271): 0.49 | NUPR1 log2FC (Gene 26471): 0.07 | AATF log2FC (Gene 26574): -0.41 | CKAP2 log2FC (Gene 26586): 0.63 | HBP1 log2FC (Gene 26959): 2.74 | MLH3 log2FC (Gene 27030): 0.23 | MTBP log2FC (Gene 27085): 0.79 | TJP3 log2FC (Gene 27134): 0.31 | VPS4A log2FC (Gene 27183): -0.29 | PDCD4 log2FC (Gene 27250): 1.70 | APEX2 log2FC (Gene 27301): -0.66 | UBE2S log2FC (Gene 27338): -0.66 | EML4 log2FC (Gene 27436): -0.50 | PPP2R3B log2FC (Gene 28227): 0.28 | MCTS1 log2FC (Gene 28985): -0.21 | HIPK2 log2FC (Gene 28996): -0.14 | BRD7 log2FC (Gene 29117): 0.53 | RACGAP1 log2FC (Gene 29127): 0.55 | UHRF1 log2FC (Gene 29128): -0.33 | PSMC3IP log2FC (Gene 29893): -0.14 | GPSM2 log2FC (Gene 29899): 0.32 | SAC3D1 log2FC (Gene 29901): 0.09 | RPA4 log2FC (Gene 29935): 0.55 | ANAPC4 log2FC (Gene 29945): 0.43 | SERTAD1 log2FC (Gene 29950): -0.75 | CUZD1 log2FC (Gene 50624): 0.31 | PARD6A log2FC (Gene 50855): 0.11 | GMNN log2FC (Gene 51053): -0.12 | RPS27L log2FC (Gene 51065): 0.28 | MLXIPL log2FC (Gene 51085): 0.34 | SBDS log2FC (Gene 51119): 0.46 | DYNC1LI1 log2FC (Gene 51143): 0.52 | ING4 log2FC (Gene 51147): 1.59 | TUBE1 log2FC (Gene 51175): 0.0372 | LEF1 log2FC (Gene 51176): -0.89 | HERC5 log2FC (Gene 51191): 0.75 | NUSAP1 log2FC (Gene 51203): 0.74 | DUSP13 log2FC (Gene 51207): 0.0185 | WAC log2FC (Gene 51322): 0.91 | DACT1 log2FC (Gene 51339): 0.04 | FZR1 log2FC (Gene 51343): -0.32 | TAOK3 log2FC (Gene 51347): 1.14 | PRKAG2 log2FC (Gene 51422): -0.54 | SNX9 log2FC (Gene 51429): 0.42 | ANAPC7 log2FC (Gene 51434): -0.32 | LCMT1 log2FC (Gene 51451): 0.00313
